One test concerns the target human Aurora B (Homo sapiens (Human), UniProt Q96GD4). Description: Measurement of Aurora B kinase activity. In kind it is biochemical. The settings on record: ATP 40 μM, 60 minutes. On the procedure: (§1) The inhibitory activities of a test compound against Aurora A and Aurora B were measured according to the following method.
The concentration of the compound at which 50% of the phosphorylation reaction was suppressed was defined as IC50 value (nM).

Another test addresses human Aurora A (Homo sapiens (Human), UniProt O14965). Description: Measurement of Aurora A inhibitory activity (IMAP fluorescence polarization kinase assay). In kind it is biochemical. To be noted: ATP 5 μM, 25° C., 50 minutes. The procedure:
as §1
Complementary DNA of human Aurora A was fused with a histidine tag at the amino terminal, inserted into an expression vector and highly expressed in Escherichia coli BL21-CodonPlus (DE3)-RIL strain. After Escherichia coli was recovered and lysed, human Aurora A protein fused with a histidine tag was allowed to bind to a nickel chelate column and eluted by imidazole from the column. An active fraction was desalted by a desalting column to obtain purified enzyme.
In measuring inhibitory activity of the compound, first, the test compound was serially diluted by dimethylsulfoxide (DMSO). […] To the mixture, IMAP (registered trade mark) Progressive Binding Reagent diluted 500× with IMAP (registered trade mark) Progressive Binding Buffer A (manufactured by Molecular Devices) was added to terminate the kinase reaction. […] Based on the obtained fluorescence polarization degree, the amount of phosphorylation reaction was obtained.
In general terms: Fluorescence polarisation rises when a labelled molecule tumbles more slowly, as on binding a larger partner.

Each structure is given as a SMILES string.

Sequence of human Aurora A (O14965 whole entry): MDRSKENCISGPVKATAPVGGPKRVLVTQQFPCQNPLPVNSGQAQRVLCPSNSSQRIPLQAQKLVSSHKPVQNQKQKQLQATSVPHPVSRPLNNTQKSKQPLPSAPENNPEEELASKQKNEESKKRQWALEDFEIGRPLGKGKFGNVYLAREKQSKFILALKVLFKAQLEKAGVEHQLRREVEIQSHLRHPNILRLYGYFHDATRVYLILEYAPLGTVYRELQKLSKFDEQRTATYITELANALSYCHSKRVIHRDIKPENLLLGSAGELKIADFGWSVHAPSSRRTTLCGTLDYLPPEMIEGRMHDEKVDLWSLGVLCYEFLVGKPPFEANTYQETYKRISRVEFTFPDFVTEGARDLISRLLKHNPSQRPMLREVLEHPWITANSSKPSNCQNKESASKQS
Sequence of human Aurora B (Q96GD4 whole entry): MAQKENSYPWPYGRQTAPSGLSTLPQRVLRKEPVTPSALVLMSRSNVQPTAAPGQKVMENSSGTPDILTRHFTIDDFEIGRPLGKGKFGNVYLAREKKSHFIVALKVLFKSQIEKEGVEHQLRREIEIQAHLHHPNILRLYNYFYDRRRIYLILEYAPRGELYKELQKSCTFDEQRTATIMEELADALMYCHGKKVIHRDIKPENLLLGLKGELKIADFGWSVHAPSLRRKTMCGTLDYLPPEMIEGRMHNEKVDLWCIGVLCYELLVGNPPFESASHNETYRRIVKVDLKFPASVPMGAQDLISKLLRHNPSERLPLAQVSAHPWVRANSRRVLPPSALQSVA
Sequence of human Aurora B (Q9NQS7 803-916 partner): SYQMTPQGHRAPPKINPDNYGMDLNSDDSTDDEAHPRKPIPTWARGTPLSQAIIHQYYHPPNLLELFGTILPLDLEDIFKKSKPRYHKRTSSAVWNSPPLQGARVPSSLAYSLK

The IC50 is the concentration that gives 50% inhibition. Take `Cc1cc(Nc2nc(CC3(C(=O)O)CCN(C(=O)c4cccc(C(F)(F)F)c4F)CC3)ccc2F)n[nH]1` [Production Example 2, 1-(2-fluoro-3-trifluoromethylbenzoyl)-4-((5-fluoro-6-(5-methyl-1H-pyrazol-3-ylamino)pyridin-2-yl)methyl)piperidine-4-carboxylic acid]: the IC50 was 0.34 µM on human Aurora B and 0.0005 µM against human Aurora A.
Turning to `CNC(=O)C1(Cc2ccc(F)c(Nc3cc(C)[nH]n3)n2)CCN(C(=O)c2cccc(Cl)c2F)CC1` [Production Example 14, 1-(3-chloro-2-fluorobenzoyl)-4-((5-fluoro-6-(5-methyl-1H-pyrazol-3-ylamino)pyridin-2-yl)methyl)-N-methylpiperidine-4-carboxyamide], the figures for the half-maximal inhibitory concentration (IC50) against human Aurora B and against human Aurora A were 0.46 µM and 0.0009 µM, respectively.
Consider `Cc1cc(Nc2nc(CC3(C(=O)NC4CC4)CCN(C(=O)c4cccc(Cl)c4F)CC3)ccc2F)n[nH]1` [Production Example 17, 1-(3-chloro-2-fluorobenzoyl)-N-cyclopropy1-4-((5-fluoro-6-(5-methyl-1H-pyrazol-3-ylamino)pyridin-2-yl)methyl)piperidine-4-carboxyamide], for which the half-inhibitory concentration (IC50) on human Aurora B came to 0.9 µM; against human Aurora A, 0.0009 µM.
In the case of `Cc1cc(Nc2nc(CC3(C(=O)N4CCC4)CCN(C(=O)c4cccc(Cl)c4F)CC3)ccc2F)n[nH]1` [Production Example 19, azetidin-1-yl(1-(3-chloro-2-fluorobenzoyl)-4-((5-fluoro-6-(5-methyl-1H-pyrazol-3-ylamino)pyridin-2-yl)methyl)piperidine-4-yl)methanone], the IC50 against human Aurora B was 0.88 µM; on human Aurora A, 0.001 µM.
For `Cc1cc(Nc2nc(CC3(c4ncon4)CCN(C(=O)c4cccc(Cl)c4F)CC3)ccc2F)n[nH]1` [Production Example 24, (3-chloro-2-fluorophenyl)(4-((5-fluoro-6-(5-methyl-1H-pyrazol-3-ylamino)pyridin-2-yl)methyl)-4-(1,2,4-oxadiazol-3-yl)piperidine-1-yl)methanone], the IC50 against human Aurora B was found to be 0.19 µM; against human Aurora A, 0.0005 µM.
Consider `Cc1cc(Nc2nc(CC3(c4nnc(C)o4)CCN(C(=O)c4cccc(Cl)c4F)CC3)ccc2F)n[nH]1` [Production Example 28, (3-chloro-2-fluorophenyl)(4-((5-fluoro-6-(5-methyl-1H-pyrazol-3-ylamino)pyridin-2-yl)methyl)-4-(5-methyl-1,3,4-oxadiazol-2-yl)piperidine-1-yl)methanone], for which the IC50 against human Aurora B is 0.45 µM; at human Aurora A, 0.0007 µM.
On to `Cc1noc(C2(Cc3ccc(F)c(Nc4cc(C)[nH]n4)n3)CCN(C(=O)c3cccc(Cl)c3F)CC2)n1` [Production Example 29, (3-chloro-2-fluorophenyl)(4-((5-fluoro-6-(5-methyl-1H-pyrazol-3-ylamino)pyridin-2-yl)methyl)-4-(3-methyl-1,2,4-oxadiazol-5-yl)piperidine-1-yl)methanone], for which the 50% inhibitory concentration (IC50) at human Aurora B amounted to 0.39 µM; against human Aurora A, 0.0008 µM.

The values are drawn from US9012475B2, “Method for enhancing anti-tumor effect of a microtubule-targeting drug, and a method for treatment of tumor” (Taiho Pharmaceutical Co., Ltd., priority 2013, dated 2015).
